The values that follow come from paper PMC9249127, “Bio-Evaluation of ^99mTc-Labeled Homodimeric Chalcone Derivative as Amyloid-β-Targeting Probe” (Frontiers in Medicine, 2022).

pKd: −log10 of the molar value. Read-outs that look alike come from different tables or passages of the source.

The conditions of data set [1]: cited from earlier work.
The nature of a further data set: Cytotoxicity MTT assay. Format: cell-based, Human. As to conditions: human, HEK 293 cells, read-out: cell viability. The procedure:
(§1) In vitro cytotoxicity studies were performed for DT(Ch)2 in the concentration range of 0.5–50 μg/mL against HEK 293 cell lines seeded in 96-well plates. The experimental procedure followed was in accordance with the previously reported literature ([32]). […] Cell cultures were grown in DMEM (Dulbecco’s modified eagle medium, high glucose) and the culture was supplemented with 1% penicillin streptomycin and 10% FBS (fetal bovine serum). The cells were incubated with different compound concentrations in a 5% CO2 incubator at 37°C. Following the addition of MTT [3-(4,5-dimethylthiazol-2-yl)-2,5-diphenyl-2H-tetrazolium bromide] to each cell (100 μL), the systems were incubated for an additional 4 h. The cell viability was reported in accordance with the mitochondrial activity measured via absorbance at 570 nm. The experiments were performed in triplicates.
(Tetrazolium dyes change colour on reduction, which living cells bring about.)

For a further data set, the system named is HEK 293 cells. The experiment in a line: Cytotoxicity MTT assay. It counts as cell-based, Human. To be noted: 0.5–50 μg/mL, after 48 h of incubation. On the procedure: as §1
A short description of the next data set: Hemolysis assay. It counts as cell-based. As to conditions: human, red blood cells (washed RBC pellet resuspended in PBS), pH 7.4; RBCs, 0.125–2 mg/mL of ligand. On the procedure:
In accordance with the previous literature, heparinized blood from healthy volunteers was used for the hemolysis assay ([33]). Blood serum was separated by centrifugation and the obtained RBC pellet was washed with PBS (pH = 7.4) repeatedly. The pellet was finally resuspended in PBS and added in equal amounts to different vials. Similarly, varying concentrations of the ligand in equal volume were incubated with the RBC pellet in the ratio of 8:2 at 37°C. The Triton X-100 and phosphate buffer saline as positive and negative control, respectively, were also incubated with RBCs under similar conditions. A total of 100 μL of solvent was centrifuged and removed at each time point: 15 min, 1, 2, 4, and 24 h. The absorbance of the supernatant was measured at 541 nm wavelength in a 96-well plate by a Synergy 2 Multi-Mode Reader (BioTek Instruments, United States). The experiments were carried out in triplicates and the extent of hemolysis was calculated according to the following formula:
Hemolysisratio=(λ(test)-λ(negativecontrol))/(λ(positivecontrol)-λ(negativecontrol))×100%

The next data set deals with Aβ aggregates. As to conditions: cited from earlier work.

As for `CNc1ccc(-c2nc3ccc(O)cc3s2)cc1` [PiB, Pittsburgh compound B], the “ratio of brain2min/brain30min” value in data set [1] is on record as 12. Turning to `CN(C)c1ccc(/C=C/C(=O)c2ccc(OCCNC(=O)CN(CCN(CCN(CC(=O)O)CC(=O)NCCOc3ccc(C(=O)/C=C/c4ccc(N(C)C)cc4)cc3)CC(=O)O)CC(=O)O)cc2)cc1` [DT(Ch)2, 6,9-bis(carboxymethyl)-14-(4-[(E)-3-(4-(dimethylamino)phenyl)acryloyl]phenoxy)-3-(2-[(2-(4-[(E)-3-(4-(dimethylamino)phenyl)acryloyl]phenoxy)ethyl)amino]-2-oxoethyl)-11-oxo-3,6,9,12-tetraazatetradecanoic acid], the viability was ~85% in “Cytotoxicity MTT assay” (throughout the concentration range and observation time); 88 to 95% in the data set “Cytotoxicity MTT assay” (up to 24 h). Further, in the data set on HEK 293 cells, the “toxicity (MTT assay)” value was < 17%. Besides, the hemolysis in the data set “Hemolysis assay” is < 5%. In the case of `O=C([O-])CN(CCN(CC(=O)[O-])CC(=O)[O-])CCN(CC(=O)[O-])CC(=O)[O-].[99Tc+4]` [^99mTc–DTPA], in data set [1] (after 30 min, known value, no reference given), the brain uptake is given as 0.04%. As to `CN(C)c1ccc(C=CC(=O)c2ccc(I)cc2)cc1` [^125I-DMIC], the pKd at Aβ aggregates was 8.38.

In general, viability refers to a read-out of living cells in per cent, often relative to untreated cells. What is called pKd is the negative decadic logarithm of the Kd, by convention in mol/L.
